Where “and” joins values, the source holds several entries; their conditions need not be identical. Equal entries are not always repeated. HELM strings list units from the 5' end as sugar, base in round brackets, then linkage (d deoxyribose, r ribose, m 2'-O-methyl, p phosphodiester). Methylation of C is not given here. [moe] = 2'-O-(2-methoxyethyl) (MOE); [cEt] = constrained ethyl (cEt); [sp] = phosphorothioate linkage
Molecular target: HBV
Conditions: ASO

| Substance | target mRNA inhibition (HepG2, 0.07 µM) | further results |
| --- | --- | --- |
| RNA1{[moe](A)[sp].[moe](C)[sp].[moe](T)[sp].[moe](A)[sp].[moe](G)[sp].d(T)[sp].d(A)[sp].d(A)[sp].d(A)[sp].d(C)[sp].d(T)[sp].d(G)[sp].d(A)[sp].d(G)[sp].[moe](C)[sp].[moe](C)[sp].[moe](A)}$$$$V2.0 | 67% and 61% | – |
| RNA1{[moe](A)[sp].[moe](A)[sp].d(C)[sp].d(C)[sp].d(A)[sp].d(C)[sp].d(T)[sp].d(G)[sp].d(A)[sp].d(A)[sp].d(C)[sp].[moe](A)[sp].[moe](A)[sp].[moe](A)[sp].[moe](T)[sp].[moe](G)}$$$$V2.0 | 15% and 0% | – |
| RNA1{[moe](C)[sp].[cEt](T)[sp].[cEt](G)[sp].d(G)[sp].d(A)[sp].d(G)[sp].d(C)[sp].d(C)[sp].d(A)[sp].d(C)[sp].d(C)[sp].d(A)[sp].d(G)[sp].[cEt](C)[sp].[cEt](A)[sp].[moe](G)}$$$$V2.0 | 60% and 45% | – |
| RNA1{[moe](C)[sp].[moe](A)[sp].[moe](C)[sp].[moe](T)[sp].d(A)[sp].d(G)[sp].d(T)[sp].d(A)[sp].d(A)[sp].d(A)[sp].d(C)[sp].d(T)[sp].d(G)[sp].[moe](A)[sp].[moe](G)[sp].[moe](C)}$$$$V2.0 | 56% and 50% | – |
| RNA1{[moe](G)[sp].[moe](T)[sp].[moe](T)[sp].[moe](C)[sp].d(C)[sp].d(G)[sp].d(C)[sp].d(A)[sp].d(G)[sp].d(T)[sp].d(A)[sp].d(T)[sp].d(G)[sp].[moe](G)[sp].[moe](A)[sp].[moe](T)}$$$$V2.0 | 57% and 45% | – |
| RNA1{[moe](A)[sp].[moe](C)[sp].[moe](G)[sp].[moe](T)[sp].[moe](G)[sp].d(C)[sp].d(A)[sp].d(G)[sp].d(A)[sp].d(G)[sp].d(G)[sp].d(T)[sp].d(G)[sp].d(A)[sp].[moe](A)[sp].[moe](G)[sp].[moe](C)}$$$$V2.0 | 73% and 52% | – |
| RNA1{[moe](G)[sp].[moe](A)[sp].[moe](G)[sp].d(G)[sp].d(C)[sp].d(A)[sp].d(T)[sp].d(A)[sp].d(G)[sp].d(C)[sp].d(A)[sp].d(G)[sp].d(C)[sp].[cEt](A)[sp].[cEt](G)[sp].[cEt](G)}$$$$V2.0 | 75% and 74% | – |
| RNA1{[moe](A)[sp].[moe](G)[sp].[moe](G)[sp].d(A)[sp].d(G)[sp].d(T)[sp].d(T)[sp].d(C)[sp].d(C)[sp].d(G)[sp].d(C)[sp].d(A)[sp].d(G)[sp].[cEt](T)[sp].[cEt](A)[sp].[cEt](T)}$$$$V2.0 | 59% and 58% | – |
| RNA1{[moe](A)[sp].[moe](G)[sp].[moe](T)[sp].d(T)[sp].d(C)[sp].d(C)[sp].d(G)[sp].d(C)[sp].d(A)[sp].d(G)[sp].d(T)[sp].d(A)[sp].[moe](T)[sp].[moe](G)[sp].[moe](G)[sp].[moe](A)[sp].[moe](T)}$$$$V2.0 | 60% and 64% | – |
| RNA1{[moe](A)[sp].[cEt](A)[sp].[cEt](G)[sp].d(A)[sp].d(T)[sp].d(G)[sp].d(A)[sp].d(G)[sp].d(G)[sp].d(C)[sp].d(A)[sp].d(T)[sp].d(A)[sp].[cEt](G)[sp].[cEt](C)[sp].[moe](A)}$$$$V2.0 | 64% and 62% | – |
| RNA1{[moe](G)[sp].[moe](T)[sp].[moe](G)[sp].d(A)[sp].d(A)[sp].d(G)[sp].d(C)[sp].d(G)[sp].d(A)[sp].d(A)[sp].d(G)[sp].d(T)[sp].[moe](G)[sp].[moe](C)[sp].[moe](A)[sp].[moe](C)}$$$$V2.0 | 70% and 68% | – |
| RNA1{[moe](T)[sp].[moe](G)[sp].[moe](A)[sp].[moe](A)[sp].[moe](G)[sp].d(C)[sp].d(G)[sp].d(A)[sp].d(A)[sp].d(G)[sp].d(T)[sp].d(G)[sp].d(C)[sp].d(A)[sp].[moe](C)[sp].[moe](A)}$$$$V2.0 | 59% and 47% | – |
| RNA1{[moe](G)[sp].[moe](A)[sp].d(G)[sp].d(G)[sp].d(T)[sp].d(G)[sp].d(A)[sp].d(A)[sp].d(G)[sp].d(C)[sp].d(G)[sp].[moe](A)[sp].[moe](A)[sp].[moe](G)[sp].[moe](T)[sp].[moe](G)[sp].[moe](C)}$$$$V2.0 | 67% and 63% | – |
| RNA1{[moe](A)[sp].[moe](T)[sp].[moe](G)[sp].[moe](A)[sp].[moe](G)[sp].d(G)[sp].d(C)[sp].d(A)[sp].d(T)[sp].d(A)[sp].d(G)[sp].d(C)[sp].d(A)[sp].d(G)[sp].[moe](C)[sp].[moe](A)}$$$$V2.0 | 52% and 56% | – |
| RNA1{[moe](G)[sp].[moe](C)[sp].d(A)[sp].d(C)[sp].d(T)[sp].d(A)[sp].d(G)[sp].d(T)[sp].d(A)[sp].d(A)[sp].d(A)[sp].[moe](C)[sp].[moe](T)[sp].[moe](G)[sp].[moe](A)[sp].[moe](G)}$$$$V2.0 | 54% and 47% | – |
| RNA1{[moe](A)[sp].[moe](G)[sp].[moe](G)[sp].d(T)[sp].d(G)[sp].d(A)[sp].d(A)[sp].d(G)[sp].d(C)[sp].d(G)[sp].d(A)[sp].d(A)[sp].[moe](G)[sp].[moe](T)[sp].[moe](G)[sp].[moe](C)[sp].[moe](A)}$$$$V2.0 | 77% and 71% | – |

| Substance | target mRNA inhibition (HepG2, 0.07 µM) | further results |
| --- | --- | --- |
| RNA1{[moe](A)[sp].[moe](T)[sp].[moe](G)[sp].[moe](A)[sp].[moe](G)[sp].d(G)[sp].d(C)[sp].d(A)[sp].d(T)[sp].d(A)[sp].d(G)[sp].d(C)[sp].d(A)[sp].d(G)[sp].[moe](C)[sp].[moe](A)[sp].[moe](G)}$$$$V2.0 | 50% and 44% | – |
| RNA1{[moe](G)[sp].[moe](A)[sp].[moe](A)[sp].d(C)[sp].d(T)[sp].d(G)[sp].d(G)[sp].d(A)[sp].d(G)[sp].d(C)[sp].d(C)[sp].d(A)[sp].[moe](C)[sp].[moe](C)[sp].[moe](A)[sp].[moe](G)}$$$$V2.0 | 51% and 39% | – |
| RNA1{[moe](C)[sp].[moe](C)[sp].[moe](G)[sp].[moe](C)[sp].d(A)[sp].d(G)[sp].d(T)[sp].d(A)[sp].d(T)[sp].d(G)[sp].d(G)[sp].d(A)[sp].d(T)[sp].[moe](C)[sp].[moe](G)[sp].[moe](G)}$$$$V2.0 | 76% and 71% | – |
| RNA1{[moe](A)[sp].[moe](G)[sp].[moe](A)[sp].[moe](A)[sp].[moe](G)[sp].d(T)[sp].d(C)[sp].d(C)[sp].d(A)[sp].d(C)[sp].d(C)[sp].d(A)[sp].d(C)[sp].d(G)[sp].[moe](A)[sp].[moe](G)[sp].[moe](T)}$$$$V2.0 | 11% and 0% | – |
| RNA1{[moe](T)[sp].[moe](G)[sp].d(C)[sp].d(A)[sp].d(G)[sp].d(A)[sp].d(G)[sp].d(G)[sp].d(T)[sp].d(G)[sp].d(A)[sp].[moe](A)[sp].[moe](G)[sp].[moe](C)[sp].[moe](G)[sp].[moe](A)[sp].[moe](A)}$$$$V2.0 | 39% and 45% | – |
| RNA1{[moe](C)[sp].[cEt](A)[sp].[cEt](C)[sp].d(T)[sp].d(G)[sp].d(A)[sp].d(A)[sp].d(C)[sp].d(A)[sp].d(A)[sp].d(A)[sp].d(T)[sp].d(G)[sp].[cEt](G)[sp].[cEt](C)[sp].[moe](A)}$$$$V2.0 | 65% and 75% | – |
| RNA1{[moe](A)[sp].[cEt](G)[sp].[cEt](A)[sp].d(T)[sp].d(G)[sp].d(A)[sp].d(G)[sp].d(G)[sp].d(C)[sp].d(A)[sp].d(T)[sp].d(A)[sp].d(G)[sp].[cEt](C)[sp].[cEt](A)[sp].[moe](G)}$$$$V2.0 | 59% and 56% | – |
| RNA1{[moe](C)[sp].[moe](C)[sp].[moe](A)[sp].d(A)[sp].d(T)[sp].d(T)[sp].d(T)[sp].d(A)[sp].d(T)[sp].d(G)[sp].d(C)[sp].d(C)[sp].d(T)[sp].[cEt](A)[sp].[cEt](C)[sp].[cEt](A)}$$$$V2.0 | 37% and 34% | – |
| RNA1{[moe](T)[sp].[moe](T)[sp].d(T)[sp].d(A)[sp].d(T)[sp].d(G)[sp].d(C)[sp].d(C)[sp].d(T)[sp].d(A)[sp].d(C)[sp].[moe](A)[sp].[moe](G)[sp].[moe](C)[sp].[moe](C)[sp].[moe](T)}$$$$V2.0 | 46% and 47% | – |
| RNA1{[moe](G)[sp].[moe](A)[sp].[moe](G)[sp].[moe](A)[sp].[moe](A)[sp].d(G)[sp].d(T)[sp].d(C)[sp].d(C)[sp].d(A)[sp].d(C)[sp].d(C)[sp].d(A)[sp].d(C)[sp].[moe](G)[sp].[moe](A)[sp].[moe](G)}$$$$V2.0 | 20% and 13% | – |
| RNA1{[moe](G)[sp].[moe](G)[sp].[moe](C)[sp].d(A)[sp].d(T)[sp].d(A)[sp].d(G)[sp].d(C)[sp].d(A)[sp].d(G)[sp].d(C)[sp].d(A)[sp].d(G)[sp].[cEt](G)[sp].[cEt](A)[sp].[cEt](T)}$$$$V2.0 | 56% and 44% | – |
| RNA1{[moe](T)[sp].[moe](A)[sp].[moe](T)[sp].d(G)[sp].d(C)[sp].d(C)[sp].d(T)[sp].d(A)[sp].d(C)[sp].d(A)[sp].d(G)[sp].d(C)[sp].[moe](C)[sp].[moe](T)[sp].[moe](C)[sp].[moe](C)}$$$$V2.0 | 49% and 46% | – |
| RNA1{[moe](A)[sp].[moe](C)[sp].[moe](C)[sp].[moe](A)[sp].[moe](C)[sp].[moe](T)[sp].d(G)[sp].d(A)[sp].d(A)[sp].d(C)[sp].d(A)[sp].d(A)[sp].d(A)[sp].d(T)[sp].d(G)[sp].[moe](G)[sp].[moe](C)}$$$$V2.0 | 59% and 42% | – |
| RNA1{[moe](G)[sp].[cEt](C)[sp].[cEt](A)[sp].d(G)[sp].d(A)[sp].d(G)[sp].d(G)[sp].d(T)[sp].d(G)[sp].d(A)[sp].d(A)[sp].d(G)[sp].d(C)[sp].[cEt](G)[sp].[cEt](A)[sp].[moe](A)}$$$$V2.0 | 70% | – |
| RNA1{[moe](G)[sp].[moe](C)[sp].[moe](A)[sp].[moe](G)[sp].d(T)[sp].d(A)[sp].d(T)[sp].d(G)[sp].d(G)[sp].d(A)[sp].d(T)[sp].d(C)[sp].d(G)[sp].[moe](G)[sp].[moe](C)[sp].[moe](A)}$$$$V2.0 | 69% and 61% | – |
| RNA1{[moe](A)[sp].[cEt](G)[sp].[cEt](C)[sp].d(G)[sp].d(A)[sp].d(A)[sp].d(G)[sp].d(T)[sp].d(G)[sp].d(C)[sp].d(A)[sp].d(C)[sp].d(A)[sp].[cEt](C)[sp].[cEt](G)[sp].[moe](G)}$$$$V2.0 | 83% and 82% | target mRNA inhibition (HepG2, 0.0092593 µM): 19%; target mRNA inhibition (HepG2, 0.0277778 µM): 52%; target mRNA inhibition (HepG2, 0.0833333 µM): 86%; target mRNA inhibition (HepG2, 0.25 µM): 93% |

Reference: the OligoGym collection
